# Assay results: patent publication US9388189B2, “Pyrrolotriazinone derivatives as PI3K inhibitors” (ALMIRALL, S.A., priority 2012, dated 2016)
# Molecular target: PI3Kδ (PI3Kd) (Homo sapiens (Human), UniProt O00329)
# Assay: PI3K HTRF enzymatic inhibition assay (cell-free), delta isoform
# Conditions: read-out: IC50 PI3Kd HTRF; recombinant PI3K delta, [ATP] 15 μM, [PIP2] 2 μM, 30 min preincubation
# From the text: Compounds were screened for their ability to inhibit PI3Kα (PI3Ka), PI3Kβ (PI3Kb), PI3Kδ (PI3Kd) and PI3Kγ (PI3Kg) using a cell-free based PI3K HTRF™ assay (Millipore, ref. #33-017).
# PI-3 Kinase HTRF kit (ref. #33-037) and the different PI3K recombinant isoforms (ref. #14-602, ref. #14-603, ref. #14-604, ref. #15-558 for Alpha, Beta, Delta and Gamma respectively) were purchased at Millipore (expressed in insect cells). ATP was purchased at Sigma Aldrich (ref. #A7699).
# The compounds were pre-incubated with the enzyme for 30 min before starting of the catalytic reaction. [PIP2] was used at its Km. […] Time of assay and [Enzyme] were optimized to work in the linear range. Stop and Detection mixtures were used as specified in the Millipore PI-3 Kinase kit.
# Reaction time and enzyme concentration in the assay will depend of each batch.
# All experiments were analysed using Activity Base software from IDBS and the four-parameter log equation.
# PI3Kδ (PI3Kd), sequence (O00329 whole entry, canonical isoform): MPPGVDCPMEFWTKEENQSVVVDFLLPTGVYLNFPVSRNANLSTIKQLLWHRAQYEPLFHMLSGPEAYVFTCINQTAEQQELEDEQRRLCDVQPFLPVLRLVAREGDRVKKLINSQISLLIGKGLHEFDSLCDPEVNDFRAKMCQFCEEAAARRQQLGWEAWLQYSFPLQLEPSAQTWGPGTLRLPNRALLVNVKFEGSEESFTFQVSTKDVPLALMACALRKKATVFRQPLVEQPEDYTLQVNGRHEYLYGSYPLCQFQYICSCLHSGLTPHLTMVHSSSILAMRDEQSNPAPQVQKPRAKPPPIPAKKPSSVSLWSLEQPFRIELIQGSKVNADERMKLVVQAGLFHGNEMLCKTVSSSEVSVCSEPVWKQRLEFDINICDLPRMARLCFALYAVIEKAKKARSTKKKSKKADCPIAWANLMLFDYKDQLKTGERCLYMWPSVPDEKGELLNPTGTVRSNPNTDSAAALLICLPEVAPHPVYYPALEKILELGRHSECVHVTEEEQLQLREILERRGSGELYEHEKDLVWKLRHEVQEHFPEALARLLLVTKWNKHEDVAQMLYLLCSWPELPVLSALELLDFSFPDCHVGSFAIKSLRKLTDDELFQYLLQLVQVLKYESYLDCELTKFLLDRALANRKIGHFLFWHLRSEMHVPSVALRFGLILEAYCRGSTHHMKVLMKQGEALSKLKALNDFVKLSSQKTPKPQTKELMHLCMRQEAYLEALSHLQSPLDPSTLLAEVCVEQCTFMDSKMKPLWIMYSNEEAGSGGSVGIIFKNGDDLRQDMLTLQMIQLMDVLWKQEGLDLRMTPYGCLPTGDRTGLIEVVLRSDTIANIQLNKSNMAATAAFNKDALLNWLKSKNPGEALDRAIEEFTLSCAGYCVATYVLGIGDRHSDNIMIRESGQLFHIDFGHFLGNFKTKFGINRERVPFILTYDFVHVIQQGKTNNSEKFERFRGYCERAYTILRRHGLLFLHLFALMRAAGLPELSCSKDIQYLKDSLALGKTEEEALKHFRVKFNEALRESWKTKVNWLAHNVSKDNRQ
# PI3Kδ (PI3Kd), sequence (P27986 whole entry partner, canonical isoform): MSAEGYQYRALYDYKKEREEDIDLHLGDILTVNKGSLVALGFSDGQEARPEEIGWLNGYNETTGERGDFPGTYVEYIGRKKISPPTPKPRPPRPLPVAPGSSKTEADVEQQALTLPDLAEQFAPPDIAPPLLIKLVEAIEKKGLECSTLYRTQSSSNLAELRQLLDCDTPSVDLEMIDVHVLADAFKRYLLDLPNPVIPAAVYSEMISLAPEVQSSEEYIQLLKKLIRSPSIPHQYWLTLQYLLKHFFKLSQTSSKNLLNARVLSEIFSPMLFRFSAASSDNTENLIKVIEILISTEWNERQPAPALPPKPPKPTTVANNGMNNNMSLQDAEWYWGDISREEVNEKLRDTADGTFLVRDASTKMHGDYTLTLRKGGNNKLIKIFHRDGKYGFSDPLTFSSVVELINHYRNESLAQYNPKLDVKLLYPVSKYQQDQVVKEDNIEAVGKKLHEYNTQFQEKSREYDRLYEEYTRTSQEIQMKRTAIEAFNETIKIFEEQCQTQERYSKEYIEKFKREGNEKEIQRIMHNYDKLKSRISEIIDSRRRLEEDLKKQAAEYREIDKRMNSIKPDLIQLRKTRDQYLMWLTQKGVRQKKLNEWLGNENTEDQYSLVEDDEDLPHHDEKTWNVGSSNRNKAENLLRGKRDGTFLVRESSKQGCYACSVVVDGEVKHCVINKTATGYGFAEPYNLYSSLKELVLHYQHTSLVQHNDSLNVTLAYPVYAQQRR
row,Molecule,IC50 [nM]
1,"Cc1ccn2nc([C@H](C)Nc3ncnc(N)c3C(=O)Oc3cc(O)cc(NS(C)(=O)=O)c3)n(-c3ccccc3)c(=O)c12 [Example 195, (S)-3-Hydroxy-5-(methylsulfonamido)phenyl 4-amino-6-((1-(5-methyl-4-oxo-3-phenyl-3,4-dihydropyrrolo[2,1-f][1,2,4]triazin-2-yl)ethyl)amino)pyrimidine-5-carboxylate]",0.2
2,"Cc1ccn2nc([C@H](C)Nc3ncnc4[nH]cc(-c5cnn(CCN(C)C)c5)c34)n(-c3ccccc3)c(=O)c12 [Example 107, (S)-2-(1-((5-(1-(2-(Dimethylamino)ethyl)-1H-pyrazol-4-yl)-7H-pyrrolo[2,3-d]pyrimidin-4-yl)amino)ethyl)-5-methyl-3-phenylpyrrolo[2,1-f][1,2,4]triazin-4(3H)-one]",2
3,"Cc1ccn2nc([C@H](C)Nc3ncnc(N)c3-c3cc(O)cc(C(F)(F)F)c3)n(-c3ccccc3)c(=O)c12 [Example 28, (S)-2-(1-((6-Amino-5-(3-hydroxy-5-(trifluoromethyl)phenyl)pyrimidin-4-yl)amino)ethyl)-5-methyl-3-phenylpyrrolo[2,1-f][1,2,4]triazin-4(3H)-one]",5
4,"Cc1ccn2nc([C@H](C)Nc3ncnc(N)c3-c3cncc(OCC(F)(F)F)c3)n(-c3ccccc3)c(=O)c12 [Example 132, (S)-2-(1-((6-Amino-5-(5-(2,2,2-trifluoroethoxyl)pyridin-3-yl)pyrimidin-4-yl)amino)ethyl)-5-methyl-3-phenylpyrrolo[2,1-f][1,2,4]triazin-4(3H)-one]",2
5,"Cc1ccn2nc([C@H](C)Nc3ncnc(N)c3-c3ccc4cc[nH]c4c3)n(-c3ccccc3)c(=O)c12 [Example 15, (S)-2-(1-((6-Amino-5-(1H-indol-6-yl)pyrimidin-4-yl)amino)ethyl)-5-methyl-3-phenylpyrrolo[2,1-f][1,2,4]triazin-4(3H)-one]",3
6,"Cc1ccn2nc([C@H](C)Nc3ncnc4[nH]cc(-c5cc(O)cc(F)c5)c34)n(-c3ccccc3)c(=O)c12 [Example 27, (S)-2-(1-((5-(3-Fluoro-5-hydroxyphenyl)-7H-pyrrolo[2,3-d]pyrimidin-4-yl)amino)ethyl)-5-methyl-3-phenylpyrrolo[2,1-f][1,2,4]triazin-4(3H)-one]",1
7,"Cc1ccn2nc([C@H](C)Nc3ncnc(N)c3-c3ccc(N4CCN(C(=O)OC(C)(C)C)CC4)cc3)n(-c3ccccc3)c(=O)c12 [Example 152, (S)-tert-Butyl 4-(4-(4-amino-6-((1-(5-methyl-4-oxo-3-phenyl-3,4-dihydropyrrolo[2,1-f][1,2,4]triazin-2-yl)ethyl)amino)pyrimidin-5-yl)phenyl)piperazine-1-carboxylate]",100
8,"C[C@H](Nc1ncnc(N)c1-c1cc(O)cc(F)c1)c1nn2cccc2c(=O)n1-c1ccccc1 [Example 7, (S)-2-(1-((6-Amino-5-(3-fluoro-5-hydroxyphenyl)pyrimidin-4-yl)amino)ethyl)-3-phenylpyrrolo[2,1-f][1,2,4]triazin-4(3H)-one]",11
9,"C[C@H](Nc1ncnc(N)c1-c1cnn(CCO)c1)c1nn2cccc2c(=O)n1-c1ccccc1 [Example 5, (S)-2-(1-((6-Amino-5-(1-(2-hydroxyethyl)-1H-pyrazol-4-yl)pyrimidin-4-yl)amino)ethyl)-3-phenylpyrrolo[2,1-f][1,2,4]triazin-4(3H)-one]",17
10,"(S)—N-((1H-Pyrazol-4-yl)ethyl)-4-((1-(5-methyl-4-oxo-3-phenyl-3,4-dihydropyrrolo[2,1-f][1,2,4]triazin-2-yl)ethyl)amino)-7H-pyrrolo[2,3-d]pyrimidine-5-carboxamide [Example 88]",41
11,"Cc1ccn2nc([C@H](C)Nc3ncnc4[nH]cc(C#Cc5ccccc5)c34)n(-c3ccccc3)c(=O)c12 [Example 80, (S)-5-Methyl-3-phenyl-2-(1-((5-(phenylethynyl)-7H-pyrrolo[2,3-d]pyrimidin-4-yl)amino)ethyl)pyrrolo[2,1-f][1,2,4]triazin-4(3H)-one]",0.3
